Activity calls are given as the source filed them. No cut-off for these calls is given here.
Legend:
Mus musculus [1] = experiment: Protection against CCl4-induced liver fibrosis in male C57BL/6 mouse assessed as decrease in collagen area in liver at 250 mg/kg measured by masson staining; format: functional, organism-based
Mus musculus [2] = experiment: Protection against CCl4-induced liver fibrosis in male C57BL/6 mouse assessed as decrease in hepatic hydroxyproline content at 250 mg/kg […]; format: functional, organism-based
[3] = target: T1, Peroxisome proliferator-activated receptor alpha (Homo sapiens, UniProt Q07869); experiment: Agonist activity at human PPARalpha measured by dual luciferase reporter gene assay
T1 sequence (Q07869 whole entry): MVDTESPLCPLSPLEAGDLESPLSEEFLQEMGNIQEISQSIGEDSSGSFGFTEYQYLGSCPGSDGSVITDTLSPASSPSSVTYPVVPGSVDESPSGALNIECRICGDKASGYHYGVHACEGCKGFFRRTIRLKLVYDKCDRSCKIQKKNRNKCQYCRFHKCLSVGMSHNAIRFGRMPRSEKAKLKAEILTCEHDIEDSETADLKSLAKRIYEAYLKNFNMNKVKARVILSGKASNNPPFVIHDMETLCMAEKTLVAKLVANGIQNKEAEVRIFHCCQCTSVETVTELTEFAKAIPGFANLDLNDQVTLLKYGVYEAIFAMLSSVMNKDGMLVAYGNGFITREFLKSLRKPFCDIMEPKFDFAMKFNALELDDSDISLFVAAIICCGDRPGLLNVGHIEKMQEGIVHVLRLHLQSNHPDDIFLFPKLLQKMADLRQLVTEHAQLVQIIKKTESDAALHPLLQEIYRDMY

[4] = target: T2, Peroxisome proliferator-activated receptor delta (Homo sapiens, UniProt Q03181); experiment: Agonist activity at human PPARdelta measured by dual luciferase reporter gene assay
T2 sequence (Q03181 whole entry): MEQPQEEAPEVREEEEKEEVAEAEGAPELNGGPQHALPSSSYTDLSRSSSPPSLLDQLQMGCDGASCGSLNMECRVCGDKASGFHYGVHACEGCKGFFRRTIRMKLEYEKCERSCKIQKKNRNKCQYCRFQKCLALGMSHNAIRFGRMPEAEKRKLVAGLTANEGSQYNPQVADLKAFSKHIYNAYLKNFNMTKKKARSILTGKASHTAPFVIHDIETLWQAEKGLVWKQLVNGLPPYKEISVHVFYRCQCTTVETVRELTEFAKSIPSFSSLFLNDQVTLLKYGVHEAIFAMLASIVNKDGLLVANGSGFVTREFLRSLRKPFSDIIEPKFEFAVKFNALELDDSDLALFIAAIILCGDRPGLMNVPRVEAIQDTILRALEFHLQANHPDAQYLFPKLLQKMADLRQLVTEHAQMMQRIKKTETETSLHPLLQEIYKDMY

[5] = target: Free fatty acid receptor 1 (Homo sapiens, UniProt O14842); experiment: Agonist activity at human FFA1 expressed in CHO cells measured by FLIPR assay; format: functional, cell-based
[6] = target: T3, Peroxisome proliferator-activated receptor gamma (Homo sapiens, UniProt P37231); experiment: Agonist activity at human PPARgamma measured by dual luciferase reporter gene assay
T3 sequence (P37231 whole entry): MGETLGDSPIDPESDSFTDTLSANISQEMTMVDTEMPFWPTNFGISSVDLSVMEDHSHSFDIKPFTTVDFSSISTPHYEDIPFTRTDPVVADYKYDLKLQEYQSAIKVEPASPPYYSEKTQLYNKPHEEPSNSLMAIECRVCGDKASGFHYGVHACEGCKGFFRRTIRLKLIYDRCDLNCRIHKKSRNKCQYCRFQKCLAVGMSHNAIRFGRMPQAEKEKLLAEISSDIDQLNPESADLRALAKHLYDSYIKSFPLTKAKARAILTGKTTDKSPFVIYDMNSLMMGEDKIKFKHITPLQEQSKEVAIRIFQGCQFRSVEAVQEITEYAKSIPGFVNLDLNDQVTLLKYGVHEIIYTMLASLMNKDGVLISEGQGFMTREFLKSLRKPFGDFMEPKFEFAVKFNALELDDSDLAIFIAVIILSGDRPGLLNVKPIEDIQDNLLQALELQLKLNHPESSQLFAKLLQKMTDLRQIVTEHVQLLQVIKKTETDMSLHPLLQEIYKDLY

Mus musculus [7] = experiment: Hypolipidemic activity in Triton1339W-induced hyperlipidemic ICR mouse model assessed as reduction in plasma TG level at 80 mg/kg, administered once daily for 5 days; format: functional, organism-based; conditions: time 5.0 day
Mus musculus [8] = experiment: Hypolipidemic activity in Triton1339W-induced hyperlipidemic ICR mouse model assessed as reduction in plasma TC level at 80 mg/kg, administered once daily for 5 days; format: functional, organism-based; conditions: time 5.0 day
[9] = Clearance in rat liver microsomes in presence of NADPH measured by LC/MS analysis; format: ADME, Microsome; conditions: read-out: CLH
[10] = Half-life in rat liver microsomes in presence of NADPH measured by LC/MS analysis; format: ADME, Microsome
Mus musculus [11] = experiment: Anti-NASH activity in high-fat/high-sugar diet and CCl4-induced nonalcoholic steatohepatitis male C57BL/6 mouse assessed as decrease in disease activity score at 100 mg/kg, po administered for 4 weeks; format: functional, organism-based
Mus musculus [12] = experiment: Anti-NASH activity in high-fat/high-sugar diet and CCl4-induced nonalcoholic steatohepatitis male C57BL/6 mouse assessed as decrease in hepatocyte ballooning score at 100 mg/kg, po administered for 4 weeks; format: functional, organism-based
Mus musculus [13] = experiment: Anti-NASH activity in high-fat/high-sugar diet and CCl4-induced nonalcoholic steatohepatitis male C57BL/6 mouse assessed as decrease in lobular inflammation score at 100 mg/kg, po administered for 4 weeks; format: functional, organism-based
Mus musculus [14] = experiment: Anti-NASH activity in high-fat/high-sugar diet and CCl4-induced nonalcoholic steatohepatitis male C57BL/6 mouse assessed as decrease in F4/80 expression at 100 mg/kg, po administered for 4 weeks; format: functional, organism-based
Mus musculus [15] = experiment: Protection against liver fibrosis in high-fat/high-sugar diet and CCl4-induced nonalcoholic steatohepatitis male C57BL/6 mouse assessed as decrease in collagen area at 100 mg/kg, po administered for 4 weeks; format: functional, organism-based
Mus musculus [16] = experiment: Protection against liver fibrosis in high-fat/high-sugar diet and CCl4-induced nonalcoholic steatohepatitis male C57BL/6 mouse assessed as decrease in alpha-SMA expression in liver at 100 mg/kg, po administered for 4 weeks; format: functional, organism-based
Mus musculus [17] = experiment: Anti-fibrotic activity in high-fat/high-sugar diet and CCl4-induced nonalcoholic steatohepatitis male C57BL/6 mouse assessed as decrease in COL1A1 mRNA expression at 100 mg/kg, po administered for 4 weeks; format: functional, organism-based

Free fatty acid receptor 1, sequence (O14842 whole entry): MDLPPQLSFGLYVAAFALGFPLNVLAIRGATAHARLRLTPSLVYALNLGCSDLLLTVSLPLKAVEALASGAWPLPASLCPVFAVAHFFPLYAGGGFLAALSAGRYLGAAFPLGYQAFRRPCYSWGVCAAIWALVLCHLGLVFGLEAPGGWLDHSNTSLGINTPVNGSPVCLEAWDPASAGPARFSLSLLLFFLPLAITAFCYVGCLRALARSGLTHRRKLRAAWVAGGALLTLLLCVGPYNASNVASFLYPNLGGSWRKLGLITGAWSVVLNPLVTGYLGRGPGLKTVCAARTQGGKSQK

| EC50 [3] | EC50 [4] | EC50 [5] | EC50 [6] | Structure (SMILES) | Activity (Mus musculus [7]) | Activity (Mus musculus [8]) | other results |
| --- | --- | --- | --- | --- | --- | --- | --- |
|  |  |  |  | Cc1ccc(=O)n(-c2ccccc2)c1 |  |  | Activity (Mus musculus [1]): Active; Activity (Mus musculus [2]): Active |
| 9.6 µM | 7.2 µM |  |  | O=C(O)COc1ccc(COc2cccc(-c3ccc4cc(OCC5CC5)ccc4c3)c2)cc1F |  |  |  |
| 15.6 µM | 10.8 µM |  |  | COc1ccc2ccc(-c3cccc(OCc4ccc(OCC(=O)O)c(F)c4)c3)cc2c1 |  |  |  |
| 7.8 µM | 10.2 µM | 2.1 µM |  | O=C(O)COc1ccc(COc2cccc(-c3nc4ccccc4s3)c2)cc1F |  |  |  |
| 10.8 µM | 20.8 µM | 6.8 µM |  | O=C(O)COc1ccc(COc2cccc(-c3nc4cc(Cl)ccc4o3)c2)cc1F |  |  |  |
| 8.72 µM | 4.5 µM |  | 18.2 µM | COc1ccc(/C=C/c2cc(OC)cc(OCc3ccc(OC(C)C(=O)O)c(F)c3)c2)cc1 (stereo not given) | Active | Active |  |
| 12.9 µM | 5.7 µM | 4.2 µM | 22.6 µM | CCOc1ccc(/C=C/c2cc(OCC)cc(OCc3ccc(OCC(=O)O)c(F)c3)c2)cc1 | Active | Active |  |
| 10.5 µM | 7.8 µM |  |  | COc1ccc2cc(-c3cccc(OCc4ccc(OCC(=O)O)c(F)c4)c3)ccc2c1 |  |  |  |
| 20.8 µM | 8.75 µM | 10.3 µM | 15.6 µM | COc1ccc(/C=C/c2cc(OC)cc(OCc3ccc(OCC(=O)O)cc3)c2)cc1 | Active | Active |  |
| 7.6 µM | 5.16 µM |  | 20.7 µM | COc1ccc(/C=C/c2cc(OC)cc(OCc3ccc(OCC(=O)O)c(C)c3)c2)cc1 | Active | Active |  |
|  |  | 0.4 µM |  | COc1ccc(-c2cccc(OCc3ccc(OCC(=O)O)c(F)c3)c2)cc1 |  | Active |  |
| 7.5 µM | 6.5 µM | 1.8 µM | 25.8 µM | COc1ccc(/C=C/c2cc(OC)cc(OCCCCCCCC(=O)O)c2)cc1 | Active | Active | microsomal CLint [9]: 72 µL/min/mg; half-life [10]: 19.3 min; Activity (Mus musculus [11]): Active; Activity (Mus musculus [12]): Active; Activity (Mus musculus [13]): Active; Activity (Mus musculus [14]): Active; Activity (Mus musculus [15]): Active; Activity (Mus musculus [16]): Active; Activity (Mus musculus [17]): Active |
| 10.3 µM | 8.37 µM |  | 24.5 µM | O=C(O)COc1ccc(COc2cc(/C=C/c3ccc(OCC4CC4)cc3)cc(OCC3CC3)c2)cc1F | Active | Active |  |
| 2.35 µM | 2.8 µM |  | 20.6 µM | COc1ccc(/C=C/c2cc(OC)cc(OCc3ccc(OC(C)(C)C(=O)O)c(F)c3)c2)cc1 | Active | Active |  |
| 6.3 µM |  |  | 10.2 µM | Cc1ccc2[nH]c(-c3cccc(OCCCCCCCC(=O)O)c3)nc2c1 |  |  |  |

— ChEMBL document CHEMBL5154671 (Eur J Med Chem, 2022)
